According to patent US8492371B2, “Compounds as cannabinoid receptor ligands” (priority 2009, dated 2013):
Like-named read-outs stand apart in the source and are kept apart here.

Experiments:
rat CB2 receptors = target: T1, rat CB2 receptors (Rattus norvegicus, UniProt Q9QZN9); test: Rat CB2 radioligand binding assay ([3H]CP-55,940 competition)
T1 construct: expressed in transfected cells; host or cells: HEK293
T1 sequence (Q9QZN9 1-360): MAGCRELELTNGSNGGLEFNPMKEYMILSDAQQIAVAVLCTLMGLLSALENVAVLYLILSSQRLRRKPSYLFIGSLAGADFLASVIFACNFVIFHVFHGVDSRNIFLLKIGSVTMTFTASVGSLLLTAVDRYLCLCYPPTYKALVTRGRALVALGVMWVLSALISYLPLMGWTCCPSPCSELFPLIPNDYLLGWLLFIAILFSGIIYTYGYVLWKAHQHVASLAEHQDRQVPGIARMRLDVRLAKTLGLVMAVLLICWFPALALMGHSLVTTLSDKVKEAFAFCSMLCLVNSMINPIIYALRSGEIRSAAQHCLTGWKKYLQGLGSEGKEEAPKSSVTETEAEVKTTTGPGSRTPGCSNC
Description: HEK293 cells stably expressing rat CB2 receptors were grown until a confluent monolayer was formed. Briefly, the cells were harvested and homogenized in TE buffer (50 mM Tris-HCl, 1 mM MgCl2, and 1 mM EDTA) using a polytron for 2×10 second bursts in the presence of protease inhibitors, followed by centrifugation at 45,000×g for 20 minutes. The final membrane pellet was re-homogenized in storage buffer (50 mM Tris-HCl, 1 mM MgCl2, and 1 mM EDTA and 10% sucrose) and frozen at −78° C. until used. Saturation binding reactions were initiated by the addition of membrane preparation (protein concentration of 20 μg/well for rat CB2) into wells of a deep well plate containing [^3H]CP-55,940 (120 Ci/mmol, a nonselective CB agonist commercially available from Tocris) in assay buffer (50 mM Tris, 2.5 mM EDTA, 5 mM MgCl2, and 0.5 mg/mL fatty acid free BSA, pH 7.4). After 45 min incubation at 30° C., binding reaction was terminated by the addition of 300 μL/well of cold assay buffer followed by rapid vacuum filtration through a UniFilter-96 GF/C filter plates (pre-soaked in 1 mg/mL BSA for 2 hours). The bound activity was counted in a TopCount using Microscint-20. Saturation experiments were conducted with twelve concentrations of [^3H]CP-55,940 ranging from 0.01 to 8 nM. Competition experiments were conducted with 0.5 nM [^3H]CP-55,940 and five concentrations of displacing ligands selected from the range of 0.01 nM to […] addition of 10 μM unlabeled CP-55,940 (Tocris, Ellisville, Mo.) was used to assess nonspecific binding.

human CB2 receptors = target: T2, human CB2 receptors (Homo sapiens, UniProt P34972); test: Human CB2 radioligand binding assay ([3H]CP-55,940 competition)
T2 construct: expressed in transfected cells; host or cells: HEK293
T2 sequence (P34972 whole entry): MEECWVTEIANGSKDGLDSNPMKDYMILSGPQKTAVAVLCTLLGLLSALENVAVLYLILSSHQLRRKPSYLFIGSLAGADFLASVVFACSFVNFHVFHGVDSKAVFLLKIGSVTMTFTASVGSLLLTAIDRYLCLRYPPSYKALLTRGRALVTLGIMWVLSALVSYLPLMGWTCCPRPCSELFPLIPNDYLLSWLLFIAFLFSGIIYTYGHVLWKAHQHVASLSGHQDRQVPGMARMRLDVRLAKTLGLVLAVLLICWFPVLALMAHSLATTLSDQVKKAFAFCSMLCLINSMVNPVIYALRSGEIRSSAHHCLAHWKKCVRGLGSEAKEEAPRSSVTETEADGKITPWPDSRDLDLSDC
Description: The CB1 and CB2 radioligand binding assays described herein are utilized to determine the selectivity of compounds of the present invention for binding to CB2 relative to CB1 receptors.
HEK293 cells stably expressing human CB2 receptors were grown until a confluent monolayer was formed. Briefly, the cells were harvested and homogenized in TE buffer (50 mM Tris-HCl, 1 mM MgCl2, and 1 mM EDTA) using a polytron for 2×10 second bursts in the presence of protease inhibitors, followed by centrifugation at 45,000×g for 20 minutes. The final membrane pellet was re-homogenized in storage buffer (50 mM Tris-HCl, 1 mM MgCl2, and 1 mM EDTA and 10% sucrose) and frozen at −78° C. until used. Saturation binding reactions were initiated by the addition of membrane preparation (protein concentration of 5 μg/well for human CB2) into wells of a deep well plate containing ([^3H]CP-55,940 (120 Ci/mmol, a nonselective CB agonist commercially available from Tocris) in assay buffer (50 mM Tris, 2.5 mM EDTA, 5 mM MgCl2, and 0.5 mg/mL fatty acid free BSA, pH 7.4). After 90 min incubation at 30° C., binding reaction was terminated by the addition of 300 μL/well of cold assay buffer followed by rapid vacuum filtration through a UniFilter-96 GF/C filter plates (pre-soaked in 1 mg/mL BSA for 2 hours). The bound activity was counted in a TopCount using Microscint-20. Saturation experiments were conducted with twelve concentrations of [^3H]CP-55,940 ranging from 0.01 to 8 nM. Competition experiments were conducted with 0.5 nM [^3H]CP-55,940 and five concentrations of displacing ligands selected from the range of 0.01 nM to 10 μM. The addition of 10 μM unlabeled CP-55,940 (Tocris, Ellisville, Mo.) was used to assess nonspecific binding.

[1] = HEK293 membranes, 0.5 nM [3H]CP-55,940, read-out: human CB2 Ki

Question: With CO[C@@H](C)COc1ccc(C(F)(F)F)cc1C(=O)/N=c1\cc(C(C)(C)C)n(C)n1C[C@H]1CCCO1 [Example 28, N-{(3E)-5-tert-butyl-1-methyl-2-[(2R)-tetrahydrofuran-2-ylmethyl]-1,2-dihydro-3H-pyrazol-3-ylidene}-2-{[(2S)-2-methoxypropyl]oxy}-5-(trifluoromethyl)benzamide] as the compound, how does the Ki (rat CB2 receptors) read?
Answer: The Ki was 44 nM.

Question: And the Ki (human CB2 receptors)?
Answer: Its Ki is 101 nM.

Question: Which results are given for CC(C)=CCOc1ccc(C(F)(F)F)cc1C(=O)/N=c1\cc(C(C)(C)C)n(C)n1C[C@H]1CCCO1 [Example 93, N-{(3E)-5-tert-butyl-1-methyl-2-[(2R)-tetrahydrofuran-2-ylmethyl]-1,2-dihydro-3H-pyrazol-3-ylidene}-2-[(3-methylbut-2-enyl)oxy]-5-(trifluoromethyl)benzamide]?
Answer: Ki (rat CB2 receptors): 15 nM; Ki (human CB2 receptors): 17 nM

Question: How did the Ki (rat CB2 receptors) turn out when COc1ccc(Br)cc1C(=O)/N=c1\cc(C(C)(C)C)n(C)n1C[C@H]1CCCO1 [Example 49, 5-bromo-N-{(3E)-5-tert-butyl-1-methyl-2-[(2R)-tetrahydrofuran-2-ylmethyl]-1,2-dihydro-3H-pyrazol-3-ylidene}-2-methoxybenzamide] was run?
Answer: Its Ki is 20 nM.

Question: And the Ki (human CB2 receptors)?
Answer: The Ki was 56 nM.

Question: Which results are given for CCOC(=O)CCc1ccc(C(F)(F)F)cc1C(=O)/N=c1\cc(C(C)(C)C)n(C)n1C[C@H]1CCCO1 [Example 131, ethyl 3-[2-[({(3E)-5-tert-butyl-1-methyl-2-[(2R)-tetrahydrofuran-2-ylmethyl]-1,2-dihydro-3H-pyrazol-3-ylidene}amino)carbonyl]-4-(trifluoromethyl)phenyl]propanoate]?
Answer: Ki (rat CB2 receptors): 18 nM; Ki (human CB2 receptors): 23 nM

Question: Cn1c(C(C)(C)C)c/c(=N\C(=O)c2cc(C(F)(F)F)ccc2NS(C)(=O)=O)n1C[C@H]1CCCO1 [Example 113, N-{(3E)-5-tert-butyl-1-methyl-2-[(2R)-tetrahydrofuran-2-ylmethyl]-1,2-dihydro-3H-pyrazol-3-ylidene}-2-[(methylsulfonyl)amino]-5-(trifluoromethyl)benzamide] was tested. Which Ki (rat CB2 receptors) did it give?
Answer: Its Ki is 40 nM.

Question: And the Ki (human CB2 receptors)?
Answer: Its Ki is 110 nM.

Question: Which results are given for COCCCOc1ccc(C(F)(F)F)cc1C(=O)/N=c1\cc(C(C)(C)C)n(C)n1C[C@H]1CCCO1 [Example 30, N-{(3E)-5-tert-butyl-1-methyl-2-[(2R)-tetrahydrofuran-2-ylmethyl]-1,2-dihydro-3H-pyrazol-3-ylidene}-2-(3-methoxypropoxy)-5-(trifluoromethyl)benzamide]?
Answer: Ki (rat CB2 receptors): 11 nM; Ki (human CB2 receptors): 3.8 nM

Question: Which Ki (rat CB2 receptors) does the source give for Cn1c(C(C)(C)C)c/c(=N\C(=O)c2cc(C(F)(F)F)ccc2OCCC2(O)CCCC2)n1C[C@H]1CCCO1 [Example 94, N-{(3E)-5-tert-butyl-1-methyl-2-[(2R)-tetrahydrofuran-2-ylmethyl]-1,2-dihydro-3H-pyrazol-3-ylidene}-2-[2-(1-hydroxycyclopentyl)ethoxy]-5-(trifluoromethyl)benzamide] here?
Answer: Its Ki is 3.3 nM.

Question: And the Ki (human CB2 receptors)?
Answer: Its Ki is 2.6 nM.

Question: Which Ki (rat CB2 receptors) does the source give for CN(C)CCOc1ccc(C(F)(F)F)cc1C(=O)/N=c1\oc(C(C)(C)C)cn1C[C@H]1CCCO1 [Example 108, N-[(2Z)-5-tert-butyl-3-[(2R)-tetrahydrofuran-2-ylmethyl]-1,3-oxazol-2(3 H)-ylidene]-2-[2-(dimethylamino)ethoxy]-5-(trifluoromethyl)benzamide] here?
Answer: The Ki was 55 nM.

Question: And the Ki (human CB2 receptors)?
Answer: The Ki was 148 nM.

Question: What does the source list for COc1ccc(Cl)cc1C(=O)/N=c1\sc(C2(C(F)(F)F)CC2)nn1C[C@H]1CCCO1 [Example 1, 5-chloro-2-methoxy-N-[(2Z)-3-[(2R)-tetrahydrofuran-2-ylmethyl]-5-[1-(trifluoromethyl)cyclopropyl]-1,3,4-thiadiazol-2(3H)-ylidene]benzamide]?
Answer: Ki (rat CB2 receptors): 2.9 nM; Ki (human CB2 receptors): 51 nM

Question: With CO[C@H]1C[C@@H](COc2ccc(C(F)(F)F)cc2C(=O)/N=c2\cc(C(C)(C)C)n(C)n2C[C@H]2CCCO2)C1 [Example 18] as the compound, how does the Ki (rat CB2 receptors) read?
Answer: Its Ki is 99 nM.

Question: What about the Ki (human CB2 receptors) of the same compound?
Answer: The Ki was 51 nM.

Question: What does the source list for Cn1c(C(C)(C)C)c/c(=N\C(=O)c2cc(Br)ccc2F)n1C[C@H]1CCCO1 [Example 132, 5-bromo-N-{(3E)-5-tert-butyl-1-methyl-2-[(2R)-tetrahydrofuran-2-ylmethyl]-1,2-dihydro-3H-pyrazol-3-ylidene}-2-fluorobenzamide]?
Answer: Ki (rat CB2 receptors): 7.1 nM; Ki (human CB2 receptors): 15 nM

Question: How did the Ki (rat CB2 receptors) turn out when COC/C=C/c1ccc(C(F)(F)F)cc1C(=O)/N=c1\cc(C(C)(C)C)n(C)n1C[C@H]1CCCO1 [Example 89, N-{(3E)-5-tert-butyl-1-methyl-2-[(2R)-tetrahydrofuran-2-ylmethyl]-1,2-dihydro-3H-pyrazol-3-ylidene}-2-[(1E)-3-methoxyprop-1-enyl]-5-(trifluoromethyl)benzamide] was run?
Answer: The Ki was 5.8 nM.

Question: What about the Ki (human CB2 receptors) of the same compound?
Answer: Its Ki is 9.8 nM.

Question: How did the Ki (rat CB2 receptors) turn out when COc1ccc(Cl)cc1C(=O)/N=c1\sc(C(C)(C)C)nn1C[C@H]1CCCO1 [Example 4, N-[(2Z)-5-tert-butyl-3-[(2R)-tetrahydrofuran-2-ylmethyl]-1,3,4-thiadiazol-2(3 H)-ylidene]-5-chloro-2-methoxybenzamide] was run?
Answer: The Ki was 1.2 nM.

Question: What about the Ki (human CB2 receptors) of the same compound?
Answer: The Ki was 6.9 nM.

Question: For Cn1c(C(C)(C)C)c/c(=N\C(=O)c2cc([N+](=O)[O-])cc(C(F)(F)F)c2)n1C[C@H]1CCCO1 [Example 106, N-{(3E)-5-tert-butyl-1-methyl-2-[(2R)-tetrahydrofuran-2-ylmethyl]-1,2-dihydro-3H-pyrazol-3-ylidene}-3-nitro-5-(trifluoromethyl)benzamide], which Ki (rat CB2 receptors) is on record?
Answer: Its Ki is 63 nM.

Question: And the Ki (human CB2 receptors; [1])?
Answer: Its Ki is 168 nM.

Question: Which results are given for COCCCc1ccc(C(F)(F)F)cc1C(=O)/N=c1\cc(C(C)(C)C)n(C)n1C[C@H]1CCCO1 [Example 90, N-{(3E)-5-tert-butyl-1-methyl-2-[(2R)-tetrahydrofuran-2-ylmethyl]-1,2-dihydro-3H-pyrazol-3-ylidene}-2-(3-methoxypropyl)-5-(trifluoromethyl)benzamide]?
Answer: Ki (rat CB2 receptors): 3 nM; Ki (human CB2 receptors): 3.5 nM

Question: With C#CC(C)(C)c1nn(C[C@H]2CCCO2)/c(=N/C(=O)c2cc(Cl)ccc2OC)s1 [Example 6, 5-chloro-N-[(2Z)-5-(1,1-dimethylprop-2-ynyl)-3-[(2R)-tetrahydrofuran-2-ylmethyl]-1,3,4-thiadiazol-2(3H)-ylidene]-2-methoxybenzamide] as the compound, how does the Ki (rat CB2 receptors) read?
Answer: Its Ki is 3.3 nM.

Question: And the Ki (human CB2 receptors)?
Answer: The Ki was 20 nM.

Question: For COCCOc1ccc(Br)cc1C(=O)/N=c1\cc(C(C)(C)C)n(C)n1C[C@H]1CCCO1 [Example 58, 5-bromo-N-{(3E)-5-tert-butyl-1-methyl-2-[(2R)-tetrahydrofuran-2-ylmethyl]-1,2-dihydro-3H-pyrazol-3-ylidene}-2-(2-methoxyethoxy)benzamide], which Ki (rat CB2 receptors) is on record?
Answer: The Ki was 69 nM.

Question: And the Ki (human CB2 receptors)?
Answer: The Ki was 31 nM.

Question: Which results are given for COc1ccc(Cl)cc1C(=O)/N=c1\sc(C(C)(C)C)nn1C[C@H]1COC(=O)N1 [Example 91, N-[(2Z)-5-tert-butyl-3-{[(4S)-2-oxo-1,3-oxazolidin-4-yl]methyl}-1,3,4-thiadiazol-2(3H)-ylidene]-5-chloro-2-methoxybenzamide]?
Answer: Ki (rat CB2 receptors): 30 nM; Ki (human CB2 receptors; [1]): 203 nM

Question: “N-({[(2Z)-5-tert-butyl-3-[(2R)-tetrahydrofuran-2-ylmethyl]-1,3,4-thiadiazol-2(3 H)-ylidene]amino}carbonyl)-L-phenylalaninamide [Example 80]” was tested. Which Ki (rat CB2 receptors; HEK293 membranes, 0.5 nM [3H]CP-55,940, read-out: rat CB2 Ki) did it give?
Answer: Its Ki is 38 nM.

Question: And the Ki (human CB2 receptors; [1])?
Answer: The Ki was 28 nM.
